{
  "source": "patent US20250288561A1",
  "about": "“NEZULCITINIB FOR DELIVERY BY NEBULIZED ORAL INHALATION” (THERAVANCE BIOPHARMA R&D IP, LLC, priority 2022, published 2025)",
  "key": {"[1]": {"test": "Earlier phase 1 clinical trial: safety, tolerability, hematological and lipid changes", "assay_type": "in vivo, human", "method": "Compound 1 was evaluated in a phase 1 clinical trial and dosed in humans through nebulized inhalation at 1 mg, 3 mg, and 10 mg for up to 7 days. […] The pharmacokinetics of inhaled compound 1 are consistent with low plasma exposures after inhaled administration. […] Additionally, absolute NK cell counts were evaluated after multiple-dosing to assess the potential for systemic pharmacologic effects associated with JAK inhibition by compound 1. […] The lack of reduction in NK cell counts is also consistent with the lack of systemic JAK inhibition. […] Other systemically mediated hematological changes associated with JAK inhibition, including neutrophil and hemoglobin reductions as well as lipid changes, were not observed with inhaled administration of compound 1.\nThe selected dose of 3 mg in the present study was consistent with the dose in a recently completed Phase 2 study. In addition, the 3 mg dose ensured adequate characterization of the nezulcitinib PK profile. Dose levels up to 9 mg of nezulcitinib were also evaluated (Administration D2). This dose level was within the range of doses tested previously (up to 10 mg of nezulcitinib) in healthy participants and those with COVID-19 in previous clinical studies."}, "[2]": {"tested_on": "subjects infected with COVID", "test": "Phase 2 clinical study in subjects infected with COVID: efficacy", "assay_type": "in vivo, human", "conditions": "for time to recovery, median: vs placebo 11; for 28-day all-cause mortality, HR / time to recovery, HR: vs placebo", "method": "Compound 1 has been studied in a phase 2 clinical study in subjects infected with COVID.\nImportantly, in a post-hoc analysis of subjects with baseline CRP (n=201), in subjects with CRP <150 mg/L (n=171), there was an improvement in those treated with compound 1 when compared to placebo in: • 28-day all-cause mortality (total number of deaths: 1 vs 9, HR: 0.097, p=0.009). • time to recovery (median: 10 vs. 11 days, HR: 1.48, p=0.02).\nIn subjects with CRP >150 mg/L (n=30), there was no difference in time to recovery or 28-day all-cause mortality between those treated with compound 1 or placebo."}, "[3]": {"test": "Phase 2 clinical study in subjects infected with COVID: safety", "assay_type": "in vivo, human", "from_the_text": "Compound 1 was well-tolerated. Adverse events and serious adverse events occurred in 34.0% and 9.7% of subjects treated with compound 1, and 41.2% and 15.7% of subjects treated with placebo, respectively. Adverse events of liver abnormalities or disease occurred in 9.7% and 7.8% of subjects treated with compound 1 and placebo, respectively. Serious infections and venous thromboembolism occurred in 1.0% and none of the subjects treated with compound 1, and 2.0% and 4.9% in subjects treated with placebo, respectively."}, "JAK1": {"target": "JAK1 (Homo sapiens, UniProt P23458)", "sequence (P23458 whole entry)": "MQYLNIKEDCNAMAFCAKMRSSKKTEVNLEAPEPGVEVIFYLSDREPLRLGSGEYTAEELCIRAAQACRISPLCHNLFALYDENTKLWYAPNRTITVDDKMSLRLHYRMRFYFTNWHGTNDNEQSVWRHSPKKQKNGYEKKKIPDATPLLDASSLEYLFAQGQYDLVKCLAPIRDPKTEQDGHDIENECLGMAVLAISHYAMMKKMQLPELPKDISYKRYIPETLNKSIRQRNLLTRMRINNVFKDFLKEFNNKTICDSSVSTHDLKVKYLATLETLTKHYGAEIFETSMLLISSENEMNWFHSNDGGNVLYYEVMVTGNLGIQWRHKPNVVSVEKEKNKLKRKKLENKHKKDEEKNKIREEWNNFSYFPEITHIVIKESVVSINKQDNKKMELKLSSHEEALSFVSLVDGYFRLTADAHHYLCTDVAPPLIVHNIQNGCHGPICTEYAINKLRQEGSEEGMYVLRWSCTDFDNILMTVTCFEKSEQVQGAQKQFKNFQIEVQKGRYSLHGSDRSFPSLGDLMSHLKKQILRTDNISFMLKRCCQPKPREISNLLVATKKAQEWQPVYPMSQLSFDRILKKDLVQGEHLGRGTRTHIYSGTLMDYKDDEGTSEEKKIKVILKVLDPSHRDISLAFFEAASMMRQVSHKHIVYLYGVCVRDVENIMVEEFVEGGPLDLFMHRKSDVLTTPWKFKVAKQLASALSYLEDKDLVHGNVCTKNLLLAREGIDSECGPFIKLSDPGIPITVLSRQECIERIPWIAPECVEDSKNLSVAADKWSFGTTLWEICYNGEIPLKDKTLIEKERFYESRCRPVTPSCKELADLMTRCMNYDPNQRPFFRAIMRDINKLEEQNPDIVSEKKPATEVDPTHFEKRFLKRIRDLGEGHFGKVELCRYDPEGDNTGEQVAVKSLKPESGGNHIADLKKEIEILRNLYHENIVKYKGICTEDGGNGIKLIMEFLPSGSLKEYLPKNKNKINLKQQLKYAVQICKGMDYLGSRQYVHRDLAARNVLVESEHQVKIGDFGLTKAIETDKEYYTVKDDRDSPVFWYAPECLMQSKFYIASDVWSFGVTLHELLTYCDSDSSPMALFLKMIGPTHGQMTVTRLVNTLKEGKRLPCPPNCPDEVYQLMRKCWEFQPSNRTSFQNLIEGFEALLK", "test": "JAK enzyme inhibition", "assay_type": "biochemical"}, "JAK3": {"target": "T1, JAK3 (Homo sapiens, UniProt P52333)", "T1 sequence (P52333 1-1124)": "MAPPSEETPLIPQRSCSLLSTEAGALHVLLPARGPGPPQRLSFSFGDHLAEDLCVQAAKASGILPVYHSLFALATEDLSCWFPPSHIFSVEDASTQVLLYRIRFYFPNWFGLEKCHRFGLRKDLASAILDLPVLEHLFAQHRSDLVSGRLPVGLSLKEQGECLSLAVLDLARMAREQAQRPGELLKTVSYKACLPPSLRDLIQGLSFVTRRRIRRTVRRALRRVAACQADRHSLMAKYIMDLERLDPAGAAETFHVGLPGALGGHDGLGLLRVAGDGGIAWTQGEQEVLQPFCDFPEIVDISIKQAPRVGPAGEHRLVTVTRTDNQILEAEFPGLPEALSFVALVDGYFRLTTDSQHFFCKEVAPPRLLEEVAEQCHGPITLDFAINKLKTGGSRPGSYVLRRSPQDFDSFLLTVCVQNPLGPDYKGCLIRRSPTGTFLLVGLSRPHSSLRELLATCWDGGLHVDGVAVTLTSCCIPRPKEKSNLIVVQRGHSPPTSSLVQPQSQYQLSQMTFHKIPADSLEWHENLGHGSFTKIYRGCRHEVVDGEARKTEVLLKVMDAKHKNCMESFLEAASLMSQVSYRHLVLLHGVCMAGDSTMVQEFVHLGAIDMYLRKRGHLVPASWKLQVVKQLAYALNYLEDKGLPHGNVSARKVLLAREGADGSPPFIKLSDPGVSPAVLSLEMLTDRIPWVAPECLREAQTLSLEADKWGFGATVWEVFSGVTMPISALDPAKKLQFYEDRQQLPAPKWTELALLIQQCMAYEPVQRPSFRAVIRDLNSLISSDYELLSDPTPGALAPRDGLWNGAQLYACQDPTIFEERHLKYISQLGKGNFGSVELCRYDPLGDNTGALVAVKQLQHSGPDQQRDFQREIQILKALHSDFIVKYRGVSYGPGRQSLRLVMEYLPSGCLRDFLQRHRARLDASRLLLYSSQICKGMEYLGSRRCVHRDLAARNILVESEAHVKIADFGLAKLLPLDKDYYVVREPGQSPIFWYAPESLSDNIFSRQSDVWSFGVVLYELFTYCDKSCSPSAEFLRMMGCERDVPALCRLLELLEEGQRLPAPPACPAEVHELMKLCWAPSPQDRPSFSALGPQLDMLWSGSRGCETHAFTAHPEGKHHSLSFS", "test": "JAK enzyme inhibition", "assay_type": "biochemical"}, "Sulfation metabolism": {"test": "Sulfation metabolism", "assay_type": "in vitro ADME"}, "IL-6 signaling": {"tested_on": "IL-6 signaling", "test": "Inhibition of cytokine signaling", "assay_type": "cell-based"}, "IFNγ signaling": {"tested_on": "IFNγ signaling", "test": "Inhibition of cytokine signaling", "assay_type": "cell-based"}, "IFNγ secretion": {"tested_on": "IFNγ secretion", "test": "Mixed lymphocyte reaction assay", "assay_type": "cell-based", "from_the_text": "The mixed lymphocyte reaction assay is an in-vitro assay that mimics transplant rejection."}, "Abl2": {"target": "Abl2 (Homo sapiens, UniProt P42684)", "sequence (P42684 whole entry)": "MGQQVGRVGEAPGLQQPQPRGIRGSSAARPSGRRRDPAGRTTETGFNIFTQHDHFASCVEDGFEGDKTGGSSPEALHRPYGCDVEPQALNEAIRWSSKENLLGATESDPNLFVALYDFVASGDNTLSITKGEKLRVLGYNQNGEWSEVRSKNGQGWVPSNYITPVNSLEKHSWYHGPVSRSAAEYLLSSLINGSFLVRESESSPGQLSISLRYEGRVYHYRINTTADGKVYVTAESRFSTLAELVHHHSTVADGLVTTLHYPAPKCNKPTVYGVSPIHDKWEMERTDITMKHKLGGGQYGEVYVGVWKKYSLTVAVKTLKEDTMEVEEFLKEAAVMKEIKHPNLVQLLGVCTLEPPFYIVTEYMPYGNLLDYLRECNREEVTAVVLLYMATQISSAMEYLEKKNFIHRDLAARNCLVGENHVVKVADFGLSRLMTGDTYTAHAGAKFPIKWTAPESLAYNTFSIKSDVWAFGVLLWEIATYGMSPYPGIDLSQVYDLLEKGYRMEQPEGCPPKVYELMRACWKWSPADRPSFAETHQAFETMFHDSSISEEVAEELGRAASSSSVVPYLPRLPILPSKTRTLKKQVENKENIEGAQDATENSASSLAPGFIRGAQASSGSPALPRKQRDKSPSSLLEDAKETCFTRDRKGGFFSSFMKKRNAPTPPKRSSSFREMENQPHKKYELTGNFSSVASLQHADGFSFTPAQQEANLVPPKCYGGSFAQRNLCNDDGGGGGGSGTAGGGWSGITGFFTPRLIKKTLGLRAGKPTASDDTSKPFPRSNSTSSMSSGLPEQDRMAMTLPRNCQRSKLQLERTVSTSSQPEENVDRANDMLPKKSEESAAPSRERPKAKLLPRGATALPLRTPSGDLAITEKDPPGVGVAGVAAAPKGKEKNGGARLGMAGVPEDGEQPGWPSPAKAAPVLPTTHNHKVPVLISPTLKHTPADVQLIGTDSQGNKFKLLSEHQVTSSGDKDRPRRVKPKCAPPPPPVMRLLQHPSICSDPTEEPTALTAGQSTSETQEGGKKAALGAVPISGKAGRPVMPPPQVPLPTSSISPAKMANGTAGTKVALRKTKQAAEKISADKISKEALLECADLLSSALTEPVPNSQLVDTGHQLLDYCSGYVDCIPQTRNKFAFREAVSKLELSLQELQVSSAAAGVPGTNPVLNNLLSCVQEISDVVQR", "test": "Abelson kinase inhibition", "assay_type": "biochemical"}},
  "data": [
    {"smiles": "CCc1cc(O)ccc1-c1ccc2c(-c3nc4c([nH]3)CN(C(C)C)[C@H](C(=O)N3CC(N(C)C)C3)C4)n[nH]c2c1", "note": "[Compound 1, (S)-(3-(dimethylamino)azetidin-1-yl)(2-(6-(2-ethyl-4-hydroxyphenyl)-1H-indazol-3-yl)-5-isopropyl-4,5,6,7-tetrahydro-3H-imidazo[4,5-c]pyridin-6-yl)methanone]", "values": [
      {"measurement": "neutrophil and hemoglobin reductions, lipid changes", "setting": "[1]; inhaled administration", "value": "not observed"},
      {"measurement": "safety and tolerability", "setting": "[1]; single and multiple doses of 1, 3, and 10 mg, healthy adult participants", "value": "safe and well tolerated"},
      {"measurement": "change from baseline at Day 7 in SaO2/FiO2 ratio, 8-point Clinical Status scale categories, proportion alive and respiratory failure-free at Day 28, vs placebo", "setting": "[2]; ITT", "value": "no difference"},
      {"measurement": "RFDs (respiratory failure-free days) from randomization through Day 28, median", "setting": "[2]; ITT, vs placebo 21, p=0.61", "value": 21, "unit": "days"},
      {"measurement": "time to recovery, median", "setting": "[2]; all subjects", "value": 10, "unit": "days"},
      {"measurement": "28-day all-cause mortality, total number of deaths", "setting": "[2]; all subjects, vs placebo 13", "value": 6},
      {"measurement": "28-day all-cause mortality, HR", "setting": "[2]; all subjects, p=0.08", "value": 0.42},
      {"measurement": "time to recovery, HR", "setting": "[2]; all subjects, p=0.12", "value": 1.27},
      {"measurement": "time to recovery, median", "setting": "[2]; post-hoc, baseline CRP <150 mg/L", "value": 10, "unit": "days"},
      {"measurement": "28-day all-cause mortality, HR", "setting": "[2]; post-hoc, baseline CRP <150 mg/L, p=0.009", "value": 0.097},
      {"measurement": "time to recovery, HR", "setting": "[2]; post-hoc, baseline CRP <150 mg/L, p=0.02", "value": 1.48},
      {"measurement": "28-day all-cause mortality, total number of deaths", "setting": "[2]; post-hoc, subjects with baseline CRP <150 mg/L (n=171), vs placebo 9", "value": 1},
      {"measurement": "time to recovery or 28-day all-cause mortality vs placebo", "setting": "[2]; subjects with CRP >150 mg/L (n=30)", "value": "no difference"},
      {"measurement": "tolerability", "setting": "[3]", "value": "well-tolerated"},
      {"measurement": "serious infections, subjects", "setting": "[3]; placebo 2.0%", "value": 1.0, "unit": "%"},
      {"measurement": "venous thromboembolism, subjects", "setting": "[3]; placebo 4.9%", "value": "none"},
      {"measurement": "adverse events of liver abnormalities or disease, subjects", "setting": "[3]; placebo 7.8%", "value": 9.7, "unit": "%"},
      {"measurement": "serious adverse events, subjects", "setting": "[3]; placebo 15.7%", "value": 9.7, "unit": "%"},
      {"measurement": "adverse events, subjects", "setting": "[3]; placebo 41.2%", "value": 34.0, "unit": "%"},
      {"measurement": "inhibition of JAK1", "setting": "JAK1", "value": "potent inhibitor"},
      {"measurement": "inhibition of JAK3", "setting": "JAK3", "value": "potent inhibitor"},
      {"measurement": "sulfation metabolism compared to corresponding fluorinated analog", "setting": "Sulfation metabolism", "value": "significantly less sulfation metabolism"},
      {"measurement": "inhibition of IL-6 signaling", "setting": "IL-6 signaling", "value": "shown to inhibit"},
      {"measurement": "inhibition of IFNγ signaling", "setting": "IFNγ signaling", "value": "shown to inhibit"},
      {"measurement": "inhibition of IFNγ secretion", "setting": "IFNγ secretion", "value": "effectively inhibit"},
      {"measurement": "inhibition of Abl2", "setting": "Abl2", "value": "potently inhibit"},
      {"measurement": "plasma concentrations with low-flow nasal oxygen therapy compared to healthy subjects without supplemental oxygen therapy", "setting": "human, in vivo", "value": "similar"},
      {"measurement": "plasma exposure", "setting": "phase 2", "value": "low"}
    ]}
  ]
}
